Results from US6117878A, “8-phenyl- or 8-cycloalkyl xanthine antagonists of A2B human adenosine receptors” (priority 1998, dated 2000).
Entries after “also recorded” stand apart in the source; their conditions may differ.

What was measured:
[1] = molecular target: T1, recombinant human A1 adenosine receptors (Homo sapiens, UniProt P30542); assay: Competition binding screen, A1 (Table 1)
T1 construct: expressed in transfected cells
T1 sequence (P30542 1-326): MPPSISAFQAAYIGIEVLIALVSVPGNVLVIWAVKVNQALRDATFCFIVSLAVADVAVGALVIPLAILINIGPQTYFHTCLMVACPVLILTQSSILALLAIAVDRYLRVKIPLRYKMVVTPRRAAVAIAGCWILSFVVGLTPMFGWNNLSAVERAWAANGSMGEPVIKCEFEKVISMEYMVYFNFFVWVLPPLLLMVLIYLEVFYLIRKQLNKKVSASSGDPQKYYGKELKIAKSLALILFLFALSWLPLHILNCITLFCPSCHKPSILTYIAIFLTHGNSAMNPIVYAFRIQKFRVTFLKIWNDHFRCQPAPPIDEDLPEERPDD
From the text: (§1) A series of compounds was screened to identify potent A2B selective antagonists. This was done in competition binding assays using recombinant human A1, A2A, A2B or A3 adenosine receptors, similar to that illustrated in FIGS. 2A and 2B.

[2] = molecular target: T2, recombinant human A2A adenosine receptors (Homo sapiens, UniProt P29274); assay: Competition binding screen, A2A (Table 1)
T2 construct: expressed in transfected cells
T2 sequence (P29274 whole entry): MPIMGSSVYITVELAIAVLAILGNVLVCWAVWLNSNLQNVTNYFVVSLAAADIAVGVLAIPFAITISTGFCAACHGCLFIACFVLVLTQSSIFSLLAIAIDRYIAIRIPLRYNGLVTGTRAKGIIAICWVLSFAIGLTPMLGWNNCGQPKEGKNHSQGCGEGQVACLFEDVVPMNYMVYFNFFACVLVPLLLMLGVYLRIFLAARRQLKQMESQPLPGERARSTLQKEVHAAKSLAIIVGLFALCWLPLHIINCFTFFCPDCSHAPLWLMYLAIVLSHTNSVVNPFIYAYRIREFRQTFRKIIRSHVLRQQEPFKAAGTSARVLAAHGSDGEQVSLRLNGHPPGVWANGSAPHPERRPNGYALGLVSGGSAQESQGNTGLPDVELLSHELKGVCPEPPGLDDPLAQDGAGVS
From the text: (§2) This was done in competition binding assays using recombinant human A1, A2A, A2B or A3 adenosine receptors, similar to that illustrated in FIGS. 2A and 2B.

[3] = molecular target: T3, recombinant human A3 adenosine receptors (Homo sapiens, UniProt P0DMS8); assay: Competition binding screen, A3 (Table 1)
T3 construct: expressed in transfected cells; host or cells: cells expressing the recombinant receptor
T3 sequence (P0DMS8 1-318): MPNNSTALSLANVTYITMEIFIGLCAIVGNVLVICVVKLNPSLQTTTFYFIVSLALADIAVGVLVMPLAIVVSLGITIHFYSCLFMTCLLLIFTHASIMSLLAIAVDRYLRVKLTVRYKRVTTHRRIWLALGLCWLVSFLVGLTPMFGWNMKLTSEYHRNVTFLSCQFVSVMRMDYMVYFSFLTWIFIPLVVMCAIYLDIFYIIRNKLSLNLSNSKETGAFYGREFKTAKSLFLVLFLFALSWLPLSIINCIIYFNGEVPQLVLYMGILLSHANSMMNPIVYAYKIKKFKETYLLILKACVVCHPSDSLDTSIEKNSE
From the text: as §1

[4] = molecular target: T4, recombinant human A2B adenosine receptors (Homo sapiens, UniProt P29275); assay: Competition binding screen, A2B (Table 1); set-up: expressed in transfected cells; host or cells: cells expressing the recombinant receptor
T4 sequence (P29275 1-332): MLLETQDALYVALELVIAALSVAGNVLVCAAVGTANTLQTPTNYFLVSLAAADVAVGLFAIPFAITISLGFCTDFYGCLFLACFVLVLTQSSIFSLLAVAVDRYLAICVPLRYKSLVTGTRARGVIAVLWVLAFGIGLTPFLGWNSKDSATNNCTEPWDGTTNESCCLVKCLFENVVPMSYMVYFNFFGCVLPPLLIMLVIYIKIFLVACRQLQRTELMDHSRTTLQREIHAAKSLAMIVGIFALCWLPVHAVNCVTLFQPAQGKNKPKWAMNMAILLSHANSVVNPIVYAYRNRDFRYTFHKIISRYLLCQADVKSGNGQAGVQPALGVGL
From the text: as §2

[5] = system: human HMC-1 mast cells; assay: Intracellular Ca2+ accumulation in HMC-1 mast cells (FURA); format: cell-based; details: FIG. 1A
[6] = system: human HMC-1 mast cells; assay: Cyclic AMP accumulation in HMC-1 mast cells (radioimmunoassay); format: cell-based; details: FIG. 1B
Method: Functional Responses Of Human HMC-1 Mast Cells to NECA and IB-MECA
In tests as described in "Canine Mast Cell Adenosine Receptors: Cloning and Expression of the A3 Receptor and Evidence that Degranulation is Mediated by the A2B Receptor," Molecular Pharmacology, 52:1-15 (1997) to, Auchampapch et al., that reference being incorporated herein by reference, intact cells were treated with the A3-selective agonist IB-MECA and the nonselective agonist NECA.
FIGS. 1A and 1B show (A) Intracellular Ca^2+ accumulation measured in cells pretreated with the Ca^2+ -sensitive fluorescent reporter, FURA and (B) Cyclic AMP accumulation measured by radioimmunoassay. The results are typical of triplicate experiments.

[7] = molecular target: T5, rhA2B adenosine receptors (Homo sapiens, UniProt P29275); assay: NECA-stimulated cyclic AMP accumulation in HEK 293 cells transfected with rhA2B adenosine receptors, Schild analysis; format: cell-based; details: cAMP, cells expressing rhA2B
T5 construct: expressed in transfected cells; host or cells: HEK 293 cells, stably transfected
T5 sequence (P29275 1-332): T4 sequence (P29275 1-332)
From the text: Agonists were used to modulate cAMP in HEK 293 cells stably transfected the rhA2B adenosine receptors or rhA3 adenosine receptors.

[8] = molecular target: T4, recombinant human A2B adenosine receptors; assay: Calcium mobilization in HEK-293 cells transfected with recombinant human A2B adenosine receptors (FURA); format: cell-based; set-up: expressed in transfected cells; host or cells: cells expressing the recombinant receptor
Method: The activation of the phospholipase C pathway leads to intracellular calcium mobilization.
Calcium mobilization was measured in cells preloaded with FURA.

[9] = molecular target: T4, recombinant human A2B adenosine receptors; assay: IP3 generation in HEK 293 cells transfected with recombinant human A2B adenosine receptors
[10] = molecular target: T3, recombinant human A3 adenosine receptors; assay: Competition radioligand binding to rhA3 adenosine receptors (Example 2); details: other subtypes than A2B; FIG. 2 and Table 1
[11] = system: adenosine receptors; details: cited from earlier work
[12] = molecular target: T4, recombinant human A2B adenosine receptors; assay: Competition for [3H]DPX binding to rhA2B adenosine receptors (Example 2); set-up: expressed in transfected cells; host or cells: cells expressing the recombinant receptor

| Ki [2] | Ki [3] | Ki [4] | Structure (SMILES) | Ki [1] | Stimulation of calcium mobilization ([5]; worded as canine mast cells) | Intracellular Ca2+ accumulation / calcium mobilization ([5]; human mast cell line HMC-1) | Stimulation of cyclic AMP accumulation ([6]; worded as canine mast cells) | Cyclic AMP accumulation ([6]; human mast cell line HMC-1) | Functional response to agonist [7] | Increase in intracellular Ca2+ content ([8]; human A2B transfected cells) | Increase in IP3 formation ([9]; NECA at 10 μM, rhA2B transfected HEK 293) | Antagonism of other adenosine receptor subtypes [10] | Binding to adenosine receptors (literature) ([11]; Lunell et al.) | Block of adenosine receptors (literature) ([11]; enprofylline: therapeutic concentration range of 20-50 uM, examined at A1 and A2A only) | Affinity for human A2B versus human A3 adenosine receptors ([12]; competition binding, FIGS. 2A and 2B) | Block of recombinant human A2B adenosine receptors ([12]; therapeutic concentration range of 20-50 μM, FIG. 2 and Table 1) | Block of Ca2+ response induced by 1 μM NECA ([8]; 100 μM antagonist) | Block of increase in IP3 produced by 10 μM NECA ([9]; 250 μM antagonist) |
| --- | --- | --- | --- | --- | --- | --- | --- | --- | --- | --- | --- | --- | --- | --- | --- | --- | --- | --- |
| 1520 ± 797 nM | 922 ± 399 nM | 198 ± 52 nM | O=C(O)C=Cc1ccc(-c2nc3c([nH]2)c(=O)n(CC2CCCCC2)c(=O)n3CC2CCCCC2)cc1 [BW-A493] | 4.98 ± 0.553 µM | – | – | – | – | – | – | – | – | – | – | – | – | – | – |
| – | – | – | CCNC(=O)[C@H]1O[C@@H](n2cnc3c(N)ncnc32)[C@H](O)[C@@H]1O [NECA, 5-N-ethylcarboxamidoadenosine] | – | stimulates canine mast cells to mobilize calcium | stimulates human mast cells to mobilize calcium; also recorded: causes intracellular Ca^2+ and cyclic AMP accumulation | stimulates canine mast cells to mobilize calcium and to accumulate cyclic AMP | stimulates human mast cells to mobilize calcium and to accumulate cyclic AMP; also recorded: causes intracellular Ca^2+ and cyclic AMP accumulation | dose-dependent functional response | dose-dependent increase in intracellular Ca^2+ content | 3.5 fold | – | – | – | – | – | – | – |
| – | – | – | CCCn1c(=O)[nH]c(=O)c2[nH]cnc21 [enprofylline] | 156 µM | – | – | – | – | – | – | – | much weaker antagonist of other adenosine receptor subtypes | bind weakly to adenosine receptors | found not to block adenosine receptors | higher affinities for human A2B adenosine receptors than for human A3 adenosine receptors | blocks recombinant human A2B adenosine receptors | totally blocks | able to block the increase in IP3 |
